From paper PMC12751012, “Nanoscale Direct-to-Biology Optimization and Structural Insights into Selective S. aureus TrmD Inhibitors” (Journal of Medicinal Chemistry, 2025)

Test system: S. aureus RN4220
Experiment: Minimal bactericidal concentration (MBC) determination, CFU/mL
Type: cell-based, Staphylococcus aureus
Conditions: 24 h static incubation
Method: To determine the minimal bactericidal concentration of the substances, bacterial cultures were prepared as in the bacterial growth inhibition assay but incubated statically at 37 °C. A serial dilution of the initial culture was made and plated on a TSB agar plate to determine the CFU/mL of the original culture. After 24 h, the cultures were diluted again and plated. Bacterial colonies were counted, and the CFU/mL was calculated. The experiment was performed in n = 3 biological replicates. Data evaluation was done using GraphPad Prism. One-way ANOVA with Dunnett’s multiple comparisons test was used for statistical analysis, and all samples were compared to the starting CFU/mL.

SMILES	concentration from which growth (CFU/mL) is affected [µM]	effect on CFU/mL after 24 h (MBC determination)
O=C(/N=C(\NCCn1cc(-c2c[nH]c3nc[nH]c(=O)c23)nn1)NC(=O)OCc1ccccc1)OCc1ccccc1 [Compound 8f]	12.5	bacteria were not killed completely
CC(C)(C)OC(=O)/N=C(\NCCn1cc(-c2c[nH]c3nc[nH]c(=O)c23)nn1)NC(=O)OC(C)(C)C [Compound 8g]		cell growth is not negatively affected
